Reference: patent US20230172200A1, “A LIQUID ANTI-PATHOGENIC AGRICULTURAL COMPOSITION” (ORO AGRI INC., priority 2019, published 2023)

Assay: Paraffin wax solubility test
Type: physicochemical
Conditions: 2.0 g paraffin wax in 98 g solvent, 25 °C; for Observation: up to 24-hours stirring; for Dissolution Time: stirring at 350 rpm
Source text: A method to evaluate the capability of a solvent to dissolve paraffin wax was developed and it helps to understand how will be performed certain solvent when applied to an epicuticular surface of a plant or an insect.

Row | Observation | Dissolution Time | Structure (SMILES)
1 | undissolved after | – | CC1COC(=O)O1 (stereo not shown) [propylene carbonate]
2 | stable at 25° c. | 102 min | CCCCCCCCCCCC(=O)OC(C)C [isopropyl laurate]
3 | stable at 25° c. | – | CCCCCCCCCCCCCC(=O)OC(C)C [isopropyl myristate]
4 | undissolved after | – | CCCCCCCCCC(=O)N(C)C [N,N-dimethyldecanamide]
5 | stable at 25° c. | 930 min | CCCCCCCCCCCC(=O)OCC(CC)CCCC (stereo not shown) [2-ethylhexyl laurate]
6 | undissolved after | – | C[S+](C)[O-] [dimethyl sulfoxide]
7 | stable at 25° c. | 340 min | CCCCCCCCCCCC(=O)OCC(C)C [isobutyl laurate]
8 | stable at 25° c. | 300 min | CCCCCCCCCCCC(=O)OC [methyl laurate]
9 | stable at 25° c. | 620 min | CCCCCCCCCCCC(=O)OCCC(C)C [isoamyl laurate]
10 | undissolved after | – | OCC1CCCO1 (stereo not shown) [tetrahydrofurfural alcohol]

Row | Structure (SMILES) | Observation | Dissolution Time
11 | O=C1CCCCC1 [cyclohexanone] | undissolved after | –
